Data reported in patent US20200166671A1, “LIPOIC ACID HYDROGELS” (UNIVERSIDADE DE SANTIAGO DE COMPOSTELA, priority 2017, published 2020).

Experiments:
[1] = Saturated aqueous ALA solution; format: physicochemical
Method: (§1) The weighed hydrogel discs were introduced in vials containing 10 mL of aqueous ALA solution (saturated, ˜0.8 mg/mL). The vials remained under oscillating agitation (150 osc/min) at 20° C. At times 24 and 48 h, a sample of 3 mL of the loading solution was taken and absorbance was measured at 334 nm (Agilent 8453 UV/VIS, Germany). The amount of ALA loaded for every hydrogel was calculated by the difference between the initial content in the loading solution and the remaining content at the end of the test.

peroxidase = conditions: Andrade et al., Exp Eye Res. 2014; cited from earlier work
[2] = Demulcent loading of hydrogel discs functionalized with CD; format: physicochemical; conditions: 20° C., aqueous demulcent solution
Method: Next, a different demulcent was loaded in each disc functionalized with CD.
The weighed hydrogel discs were placed in 5 or 10 mL of aqueous polysorbate 80 solutions (0.2; 0.5 or 1 mg/mL) and kept at 20° C. under magnetic stirring (80 rpm) for 24 hours. Absorbance of the medium was monitored at 234 nm (Agilent […] UV/Vis spectrophotometer, Germany). The amount of loaded polysorbate 80 was estimated from the difference between the amounts in the loading medium before and after the loading tests.
The weighed hydrogel discs were placed in 5 or 10 mL of aqueous PEG4000 solutions (0.1 mg/mL), kept at 20° C. under magnetic stirring (80 rpm) for 48 hours. Aliquots of loading medium were analyzed by means of HPLC. The loaded amount of PEG4000 was estimated from the difference between the amounts in the loading medium before and after the loading tests.
as §1
The loading results, measured in amount of demulcent for every gram of dry mass of hydrogel, are shown below: […]

[3] = Andrade et al., Exp Eye Res. 2014; cited from earlier work

O=C(O)CCCC[C@@H]1CCSS1 [α-lipoic acid]
concentration of saturated aqueous ALA solution [1]: ~800 µg/mL
peroxidase activity (peroxidase): increases peroxidase activity
amount of demulcent for every gram of dry mass of hydrogel ([2]; loading 24 h): 57 mg/g
amount of demulcent for every gram of dry mass of hydrogel ([2]; loading 48 h): 58 mg/g
tear production [3]: increase in tear production

Polysorbate 80
amount of demulcent for every gram of dry mass of hydrogel ([2]; loading 24 h): 1 mg/g
